# Measured values published in patent US20140221283A1 (Indiana University Research and Technology Corporation, priority 2011, published 2014).
# *1 amine or outer side, *2 acyl side, *3 side chain or, on linkers, in order; H or OH if unused. Where a SMILES comes first, the peptide text is derived from it. Side-chain parts run from the residue outwards. [ ]: non-standard residue; d: D form. The star is where a group is joined. γGlu = O=C(O)[C@H](CCC(=O)[*:2])N[*:1]; Palmitoyl = CCCCCCCCCCCCCCCC(=O)*; Aib = CC(C)(N)C(=O)O
# How the values were obtained:
# [1] = food intake of obese rhesus monkeys dosed daily for 21 days (Example 8); assay type: in vivo; details: 3 μg/kg s.c. daily for 21 days
# Protocol: (§1) The in vivo effects of a peptide of the invention were confirmed in obese rhesus monkeys by administering daily for 21 days a vehicle control, a commercially available product (Liraglutide), a peptide of SEQ ID NO: 20, or a peptide of SEQ ID NO: 17. […] Body weight and food intake were measured.
# human GIPR = biological target: T1, human GIPR (Homo sapiens, UniProt P48546); test: cAMP production in CHO-K1 cells stably expressing human GIPR, DiscoveRx Hithunter cAMP XS+ (Example 4); assay type: cell-based; details: procedure of Example 4, read-out: EC50 (nM) at GIP receptor
# T1 construct: expressed in transfected cells; host or cells: CHO-K1
# T1 sequence (P48546 22-466): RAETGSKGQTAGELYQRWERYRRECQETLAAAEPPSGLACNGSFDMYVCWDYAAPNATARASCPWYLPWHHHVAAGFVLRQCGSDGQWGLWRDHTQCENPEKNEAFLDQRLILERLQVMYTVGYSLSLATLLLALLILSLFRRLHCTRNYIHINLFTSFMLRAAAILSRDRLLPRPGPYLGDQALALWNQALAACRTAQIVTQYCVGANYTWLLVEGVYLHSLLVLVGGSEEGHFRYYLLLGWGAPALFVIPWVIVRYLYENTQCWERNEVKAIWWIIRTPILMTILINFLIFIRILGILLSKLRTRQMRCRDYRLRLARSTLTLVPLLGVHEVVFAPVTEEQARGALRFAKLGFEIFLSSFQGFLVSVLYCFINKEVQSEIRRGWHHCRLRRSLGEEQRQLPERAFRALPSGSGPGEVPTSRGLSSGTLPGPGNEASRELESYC
# Protocol: (§2) The in vitro agonist potencies of the peptide of SEQ ID NO. 17 were determined using Chinese Hamster Ovary cells (CHO-K1) stably expressing human GLP-1R, GCGR or GIPR. The GLP-1R and GCGR stable cell line isogenic pools were generated by Invitrogen using their Jump-In™ targeted integration technology, whereas the stable CHO/GIPR lines were generated through classic cloning and transfection techniques (random integration) with limited dilution for selection of clones. The peptides were tested in vitro for their relative abilities to stimulate cAMP production in the various cell lines using the DiscoveRx Hithunter™ cAMP XS+ assay kit (cat#90-0075L) as per kit instructions.
# [2] = body weight of diet-induced obese (DIO) mice dosed daily for nine days (Example 7); assay type: in vivo; details: Day 9
# Protocol: (§3) Mice were administered a vehicle control or a dose of a peptide daily for nine days. The peptides tested in this study included a peptide of SEQ ID NO: 12, a peptide of SEQ ID NO: 17, a peptide of SEQ ID NO: 18, and a peptide of SEQ ID NO: 19. Doses of each peptide were varied—each of the peptides of SEQ ID NO: 12, 17, and 19 was administered at a dose of either 3 nmol/kg or 9 nmol/kg, while the peptide of SEQ ID NO: 18 was administered at a dose of 1 nmol/kg, 3 nmol/kg, or 9 nmol/kg. Data are expressed as mean±SEM.
# [3] = ambient glucose levels of DIO mice dosed daily for nine days (Example 7); assay type: in vivo
# Protocol: as §3
# In addition to cumulative body weight change, ambient glucose levels of the DIO mice were measured.
# [4] = body weight of obese rhesus monkeys dosed daily for 21 days (Example 8); assay type: in vivo
# Protocol: as §1
# human GLP-1R = human GLP-1R (Homo sapiens, UniProt P43220); test: cAMP production in CHO-K1 cells stably expressing human GLP-1R, DiscoveRx Hithunter cAMP XS+ (Example 4); assay type: cell-based; design: host or cells: CHO-K1; details: CHO-K1 stably expressing human GLP-1R, procedure of Example 4
# Sequence of human GLP-1R (P43220 24-463): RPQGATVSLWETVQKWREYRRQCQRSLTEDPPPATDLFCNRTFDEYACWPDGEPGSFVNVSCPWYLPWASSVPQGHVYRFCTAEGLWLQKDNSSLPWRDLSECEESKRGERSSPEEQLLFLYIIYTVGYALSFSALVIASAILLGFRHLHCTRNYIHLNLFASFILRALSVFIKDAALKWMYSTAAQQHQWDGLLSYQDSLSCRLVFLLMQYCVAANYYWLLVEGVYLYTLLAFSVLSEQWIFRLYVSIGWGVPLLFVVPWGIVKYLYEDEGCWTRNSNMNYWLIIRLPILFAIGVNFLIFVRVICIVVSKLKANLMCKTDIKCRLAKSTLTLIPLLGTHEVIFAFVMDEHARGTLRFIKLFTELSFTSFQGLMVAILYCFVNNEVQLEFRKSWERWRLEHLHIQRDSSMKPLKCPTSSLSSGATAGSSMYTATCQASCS
# Protocol: as §2
# [5] = Meal Tolerance Test (MTT) in diabetic rhesus monkeys treated for 10 days (Example 9); assay type: in vivo; details: 1 μg/kg s.c. for 10 days
# Protocol: (§4) The in vivo effects of a peptide of the invention were tested in diabetic rhesus monkeys (n=7) that were aged 16-26 years and having an average body weight of […]. Diabetic rhesus monkeys (n=7) that were aged 16-26 years with an average body weight of […] were administered a vehicle control, Liraglutide at a dose of 10 μg/kg s.c. or a peptide of SEQ ID NO: 17 at a dose of 1 μg/kg s.c. for 10 days. At the end of each treatment, fasting blood glucose (FBG) was measured first followed by a Meal Tolerance Test (MTT) to assess glucose tolerance. […] Data are expressed in FIG. 4 as mean±SEM. *P<0.05 versus vehicle.
# [6] = fasting blood glucose (FBG) of diabetic rhesus monkeys treated for 10 days (Example 9); assay type: in vivo; details: 1 μg/kg s.c. for 10 days
# Protocol: as §4
# human GCGR = biological target: T2, human GCGR (Homo sapiens, UniProt P47871); test: cAMP production in CHO-K1 cells stably expressing human GCGR, DiscoveRx Hithunter cAMP XS+ (Example 4); assay type: cell-based; details: procedure of Example 4
# T2 construct: host or cells: CHO-K1
# T2 sequence (P47871 26-477): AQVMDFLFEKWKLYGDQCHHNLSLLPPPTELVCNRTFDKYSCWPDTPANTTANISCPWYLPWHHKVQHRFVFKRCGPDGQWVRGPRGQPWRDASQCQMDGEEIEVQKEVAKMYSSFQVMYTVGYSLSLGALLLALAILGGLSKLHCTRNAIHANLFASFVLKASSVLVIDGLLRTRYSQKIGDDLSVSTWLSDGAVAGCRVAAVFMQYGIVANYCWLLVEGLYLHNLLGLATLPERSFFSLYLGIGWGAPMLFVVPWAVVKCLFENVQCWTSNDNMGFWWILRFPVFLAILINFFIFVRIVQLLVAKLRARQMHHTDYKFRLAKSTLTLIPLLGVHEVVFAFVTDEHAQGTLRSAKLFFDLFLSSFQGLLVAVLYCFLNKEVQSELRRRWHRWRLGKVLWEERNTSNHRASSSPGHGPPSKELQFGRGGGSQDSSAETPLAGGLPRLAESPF
# Protocol: as §2
structure (smiles),measurement,setting,value
CCCCCCCCCCCCCCCC(=O)N[C@@H](CCC(=O)N[C@@H](CCC(=O)NCCCC[C@H](NC(=O)[C@H](CC(=O)O)NC(=O)[C@H](CO)NC(=O)[C@@H](NC(=O)[C@H](Cc1ccccc1)NC(=O)[C@@H](NC(=O)CNC(=O)[C@H](CCC(N)=O)NC(=O)C(C)(C)NC(=O)[C@@H](N)Cc1c[nH]cn1)[C@@H](C)O)[C@@H](C)O)C(=O)N[C@@H](CO)C(=O)N[C@@H](CCCCN)C(=O)N[C@@H](Cc1ccc(O)cc1)C(=O)N[C@@H](CC(C)C)C(=O)N[C@@H](CC(=O)O)C(=O)NC(C)(C)C(=O)N[C@@H](CCCNC(=N)N)C(=O)N[C@@H](C)C(=O)N[C@@H](C)C(=O)N[C@@H](CCC(N)=O)C(=O)N[C@@H](CC(=O)O)C(=O)N[C@@H](Cc1ccccc1)C(=O)N[C@H](C(=O)N[C@@H](CCC(N)=O)C(=O)N[C@@H](Cc1c[nH]c2ccccc12)C(=O)N[C@@H](CC(C)C)C(=O)N[C@@H](CCSC)C(=O)N[C@@H](CC(N)=O)C(=O)N[C@H](C(=O)N[C@@H](CCCCN)C(=O)N[C@@H](CCC(N)=O)C(=O)O)[C@@H](C)O)C(C)C)C(=O)O)C(=O)O [SEQ ID NO: 17] (H-H[Aib]QGTFTSDK([γGlu-γGlu-Palmitoyl])SKYLD[Aib]RAAQDFVQWLMNTKQ-OH; N-terminus assumed),"food intake, % change vs. baseline",[1],−25.7%
same,EC50,human GIPR,> 2000 nM
same,body weight reduction,[2]; 3 nmol/kg daily,~9.6%
same,body weight loss,[2]; 9 nmol/kg daily,~35.5%
same,reduction in glucose levels compared to vehicle control mice,"[3]; 3 nmol/kg daily, Day 7",~28%
same,decrease in glucose levels compared to vehicle control mice,"[3]; 3 nmol/kg daily, Day 9",~19%
same,decrease in glucose levels compared to vehicle control mice,"[3]; 9 nmol/kg daily, Day 4",~48%
same,decrease in glucose levels compared to vehicle control mice,"[3]; 9 nmol/kg daily, Day 7",~48%
same,decrease in glucose levels compared to vehicle control mice,"[3]; 9 nmol/kg daily, Day 9",~45%
same,weight loss vs. baseline and vehicle,[4]; 3 μg/kg s.c. daily for 21 days,-1.2 kg
same,body weight following a one week wash-out,"[4]; Day 28, after 21 days at 3 μg/kg s.c.",regained much of the weight that was lost
same,EC50,human GLP-1R,0.075 nM
same,glucose tolerance during MTT as compared to vehicle,[5],improved glucose tolerance
same,FBG change vs. vehicle,[6],−25%
same,fasting blood glucose (FBG),[6]; mean±SEM,120 ± 20 mg/dL
same,EC50,human GCGR,0.11 nM
